Key:
[1] = tested on: cAMP-specific phosphodiesterase (PDE IV); assay: Inhibition of the PDE IV enzyme derived from a dog trachea; format: biochemical; conditions: test compound 10^−6 M; PDE IV from dog tracheal smooth muscle; substrate cAMP 1 μM
Protocol: cAMP-specific phosphodiesterase (PDE IV) was purified from a dog tracheal smooth muscle according to the method of Torphy et al. [Molecular Pharmacol., 37, 206-214 (1990)]. The PDE activity was measured by the following two steps according to the method of Kincaid and Manganiello et al. [Method in Enzymology (J. D. Corbin and R. A. Jonson, Eds.), 199, 457-470 (1988)]. Using [^3]cAMP (at a final concentration of 1 μM) as a substrate, the reaction was carried out in a standard mixture containing N,N-bis(2-hydroxyethyl)-2-aminoethanesulfonic acid (50 mM, pH=7.2), MgCl2 (1 mM), and soybean trypsin inhibitor (0.1 mg/ml). The reaction was initiated by adding the enzyme, followed by incubation at 30° C. for 10 to 30 minutes. After stopping the reaction with hydrochloric acid, the generated […] was completely converted to adenosine by 5′-nucleotidase.
The resultant was subjected to chromatography on DEAE-Sephadex A-25, and radio activity of the eluted [^3H] adenosine was counted using a scintillation counter. Each of the test drugs was dissolved in DMSO (final concentration 1.7%) and then added to the mixture.

Row | SMILES | melting point | Enzyme Inhibitory Activity (%, 10^−6 M) [1]
1 | COc1ccc(C(=O)Nc2c(Cl)cncc2Cl)c2cc(-c3ccncc3)oc12 [Compound 38, 4-[(3,5-Dichloro-4-pyridyl)aminocarbonyl]-7-methoxy-2-(4-pyridyl)benzofuran] | 289 to 290 °C | 89%
2 | COc1ccc(C(=O)Nc2c(Cl)cncc2Cl)c2c1OCC2CC(=O)NCc1cccnc1 (racemic) [Compound 18, (±)-4-[(3,5-Dichloro-4-pyridyl)aminocarbonyl]-7-methoxy-3-[(3-pyridylmethyl)aminocarbonyl]methyl-2,3-dihydrobenzofuran] | 258 to 261 °C (dec.) | 81%
3 | COc1ccc(C(=O)Nc2c(Cl)cncc2Cl)c2c1OCC2CC(=O)OCc1ccccc1 (racemic) [Compound 13, (±)-3-Benzyloxycarbonylmethyl-4-[(3,5-Dichloro-4-pyridyl)aminocarbonyl]-7-methoxy-2,3-dihydrobenzofuran] | 198 to 205 °C | 94%
4 | COc1ccc(C(=O)Nc2c(Cl)cncc2Cl)c2c1OCC2CC(=O)NCc1ccccc1Cl (racemic) [Compound 31, (±)-3-[(2-Chlorobenzyl)aminocarbonyl]methyl-4-[(3,5-dichloro-4-pyridyl)aminocarbonyl]-7-methoxy-2,3-dihydro-benzofuran] | 288 to 289 °C | 89%
5 | CCC1COc2c(OC)ccc(C(=O)Nc3c(Cl)cncc3Cl)c21 (racemic) [Compound 3, (±)-4-[(3,5-Dichloro-4-pyridyl)aminocarbonyl]-3-ethyl-7-methoxy-2,3-dihydrobenzofuran] | 202 to 204 °C | 75%
6 | COc1ccc(C(=O)Nc2c(Cl)cncc2Cl)c2c(-c3ccccc3)coc12 [Compound 42, 4-[(3,5-Dichloro-4-pyridyl)aminocarbonyl]-7-methoxy-3-phenylbenzofuran] | 177 to 179 °C | 73%
7 | COc1ccc(C(=O)Cc2c(Cl)cncc2Cl)c2c1OCC2C (racemic) [Compound 103, (±)-4-[2-(3,5-Dichloro-4-pyridyl)-1-oxoethyl]-7-methoxy-3-methyl-2,3-dihydrobenzofuran] | 99 to 104 °C | 88%
8 | COc1ccc(C(=O)Cc2ccncc2)c2c1OCC2C (racemic) [Compound 104, (±)-7-Methoxy-3-methyl-4-[1-oxo-2-(4-pyridyl)ethyl]-2,3-dihydrobenzofuran] | 111 to 117 °C | 48%
9 | CCOC(=O)CC1COc2c(OC)ccc(C(=O)NC3CCCCC3)c21 (racemic) [Compound 8, (±)-4-Cyclohexylaminocarbonyl-3-ethoxycarbonylmethyl-7-methoxy-2,3-dihydrobenzofuran] | 197 to 199 °C | 5%
10 | COc1ccc(C(=O)Nc2c(Cl)cncc2Cl)c2c1OCC2C (racemic) [Compound 2, (±)-4-[(3,5-Dichloro-4-pyridyl)aminocarbonyl]-7-methoxy-3-methyl-2,3-dihydrobenzofuran] | 198 to 200 °C | 77%
11 | CCOC(=O)CC1COc2c(OC)ccc(C(=O)Nc3c(Cl)cncc3Cl)c21 (racemic) [Compound 5, (±)-4-[(3,5-Dichloro-4-pyridyl)aminocarbonyl]-3-ethoxycarbonylmethyl-7-methoxy-2,3-dihydrobenzofuran] | 186 to 188 °C | 85%
12 | COc1ccc(C=Cc2c(Cl)cncc2Cl)c2c1CC1(CCCC1)O2 [Compound 131, 7-[2-(3,5-Dichloro-4-pyridyl)ethenyl]-4-methoxy-spiro[2,3-dihydrobenzofuran-2,1′-cyclopentane]] | 99 to 101 °C | 51%
13 | COc1ccc(C(=O)Nc2c(Cl)cncc2Cl)c2c1OCC2CC(=O)NCc1ccccc1 (racemic) [Compound 25, (±)-3-(Benzylaminocarbonyl)methyl-4-[(3,5-dichloro-4-pyridyl)aminocarbonyl]-7-methoxy-2,3-dihydrobenzofuran] | 284 to 286 °C | 84%
14 | COc1ccc(C(Cc2c(Cl)cncc2Cl)OC)c2c1OC(C)(C)C2 (racemic) [Compound 62, (±)-4-[2-(3,5-Dichloro-4-pyridyl)-1-methoxyethyl]-7-methoxy-2,2-dimethyl-2,3-dihydrobenzofuran] | – | 63%
15 | COc1ccc(C(=O)Cc2ccncc2)c2cc(-c3ccncc3)oc12.Cl.Cl [Compound 115, 7-Methoxy-4-[1-oxo-2-(4-pyridyl)ethyl]-2-(4-pyridyl)-benzofuran.2 hydrochloride] | – | 85%
16 | CCC1(CC)Cc2c(/C=C/c3c(Cl)cncc3Cl)ccc(OC)c2O1.CS(=O)(=O)O [Compound 71, (E)-2,2-Diethyl-7-methoxy-4-[2-(3,5-dichloro-4-pyridyl)ethenyl]-2,3-dihydrobenzofuran.methanesulfonate] | – | 87%
17 | COc1ccc(CCc2c(Cl)cncc2Cl)c2c1OC1(CCCC1)C2.CS(=O)(=O)O [Compound 52, 4-[2-(3,5-Dichloro-4-pyridyl)ethyl]-7-methoxy-spiro[2,3-dihydrobenzofuran-2,1′-cyclopentane].methanesulfonate] | – | 86%
18 | COc1ccc(C(Sc2ccncc2)c2ccccc2)c2c1OC(C)(C)C2 (racemic) [Compound 49, (±)-7-Methoxy-2,2-dimethyl-4-[1-phenyl-1-(4-pyridylthio)methyl]-2,3-dihydrobenzofuran] | – | 40%
19 | CCC1(CC)Cc2c(CCc3c(Cl)cncc3Cl)ccc(OC)c2O1.CS(=O)(=O)O [Compound 50, 4-[2-(3,5-Dichloro-4-pyridyl)ethyl]-2,2-diethyl-7-methoxy-2,3-dihydrobenzofuran.methanesulfonate] | – | 69%
20 | COc1ccc(/C=C/c2ccncc2)c2c1OC1(CCCC1)C2.Cl [Compound 74, (E)-7-Methoxy-4-[2-(4-pyridyl)ethenyl]-spiro[2,3-dihydrobenzofuran-2,1′-cyclopentane].hydrochloride] | – | 73%
21 | COc1ccc(C(=O)Cc2ccncc2)c2c1OC1(CCCC1)CC2.Cl [Compound 127, 8-Methoxy-5-[1-oxo-2-(4-pyridyl)ethyl]-spiro[3,4-dihydrobenzopyran-2,1′-cyclopentane].hydrochloride] | – | 70%
22 | COc1ccc(/C=C/c2c(Cl)cncc2Cl)c2c1OC1(CCCCC1)C2.CS(=O)(=O)O [Compound 76, (E)-4-[2-(3,5-Dichloro-4-pyridyl)ethenyl]-7-methoxy-spiro[2,3-dihydrobenzofuran-2,1′-cyclohexane].methanesulfonate] | – | 93%
23 | COc1ccc(C=Cc2ccncc2)c2c1OC1(CCCC1)CC2.Cl [Compound 125, 8-Methoxy-5-[2-(4-pyridyl)ethenyl]-spiro[3,4-dihydrobenzopyran-2,1′-cyclopentane].hydrochloride] | – | 71%
24 | COc1ccc(C(Cc2ccncc2)c2ccccc2)c2c1OC1(CCCC1)O2.Cl (stereo not shown) [Compound 137, 4-Methoxy-7-[1-phenyl-2-(4-pyridyl)ethyl]-spiro[1,3-benzodioxole-2,1′-cyclopentane].hydrochloride] | – | 61%
